Assay [1] has as its system muscle of mice with/without exercise. Kind of assay: Collation of top 100 differentially expressed muscle genes with NIH MedlinePlus (related diseases). More on the design: species or system mouse. The source says:
Diseases associated with top 100 genes observed to have differential expression in mice with/without exercise were found by collation with NIH MedlinePlus (FIG. 8).

A further assay concerns old mice (C57BL/6J). Kind of assay: Treadmill test of muscle strength (endurance) in young and old mice. Format: in vivo, mouse. From the text: Decrease in endurance in old mice In order to confirm that a decrease in muscle strength is observed in mouse models (C57BL/6J) (purchased from Oriental Yeast), the muscle strength (endurance) in 15-week old young mice and 79-week-old old mice was investigated in a treadmill test in accordance with the following (FIG. 1A). Prior to recording the performance, mice were trained for 3 days to acclimate the mice to the equipment. Electric stimulation grid was adjusted to 1 mA, and the gradient was set to 15 degrees. On the first day of training, mice were induced to walk for 10 minutes at a rate of 10 m/minute, allowed to rest for 10 minutes, and then induced to walk for 10 minutes at a rate of 10 m/minute on a treadmill. On day 2 and day 3, the first two steps were the under the same conditions as day 1, and then the mice were induced to start walking at 10 m/minute. The speed was increased by 1 m/minute until reaching the maximum speed of 20 m/minute. On day 4, the maximum exercise endurance was measured. Six mice were placed on a treadmill, which was started at a belt speed of 5 m/minute for 5 minutes to let the mice warm up. The speed was increased 1 m/minute until reaching the maximum speed of 20 m/minute. After making the mice run for 5 minutes, the speed was increased from 20 m/minute to 21 m/minute for 10 minutes. The mice were then forced to run at 22 m/minute until stalling on the electric stimulation grid for 10 seconds. The distance traveled until stalling for 10 seconds was measured.
OK-1 manufactured in Manufacturing Example 1 was intraperitoneally administered to young and old mice twice a week over three months. The dosage was 20 mg/kg/day.
74-week old mice (C57B16/J) were purchased from Oriental Yeast. […] Muscle strength (endurance) and grip strength of mice administered with C-82 were then measured through a treadmill test and smart grip strength meter for rats and mice (Muromachi Kikai Co., Ltd.), respectively. […]

For assay [2], the system named is muscle of mice without exercise. The assay can be described thus: Gene analysis (RNA-seq, GO, upstream transcription factor, GSEA) of muscle of administered mice without exercise. Format: in vivo, mouse. How it is done:
Gene analysis (RNA-seq) was performed in old mice administered with OK-1 with improved muscle strength and muscle mass. The method and reagent used were the following.
The quality of all reads was checked by using FastQC v0.11.8, and low quality reads were removed using Trimomatic (ver 0.38).
LEADING: 20 (remove bases with a quality score of less than 20 from the leading reads), TRAILING: 20, SLIDINGWINDOW: 4:15 (window size 4, average quality 15), MINLEN: 36 (remove reads that are less than […])
Each read obtained after filtering was mapped to reference genome GRCm38 by using STAR (ver 2.7.0.f). Mapping was performed using the default values of STAR.
1) Index preparation • Run Mode; genomeGenerate • Reference; GRCm38 • Annotation file; genecode version M24 • sjdbOverhang; 150 alignment was performed using the index prepared above. In addition, this was performed with default values without options.
To count the number of genes, featuecount (ver 1.6.4) was used to count the number for each gene name defined by a symbol name, where the number was counted in gene symbol units defined in genecode version M24.
The counted numbers were filtered for genes with a count data of 0 in all samples, subjected to TMM normalization using edgeR (ver 3.22.3), and corrected among samples. Initially, for understanding of the overall picture of the data, primary component analysis and clustering analysis were performed using count data after removal of low expression genes.
Differential expression of a pattern designated based on the obtained expression values was compared.
Differentially expressed genes were tested using edgeR. As the definition of differentially expressed gene, uncorrected p. value<0.05 was used as a cut-off value, and Fold Change of “pattern not used” and “2 or more or 0.5 or less” were used as the cut-off for calculation.
Gene enrichment analysis was performed on the resulting differentially expressed gene using gprofiler2 (version 0.1.6).
Expression values after normalization of resulting differentially expressed genes were extracted. Visual heatmap was drawn to study the change. […] This analysis was performed using RcisTarget (ver 1.8.0). RcisTarget performed analysis using a mouse database for 10 kbp upstream of TSS stored in RcisTarget. Details of analysis are the following (cited from https://scenic.aertslab.org/tutorials/RcisTarget.html).
The first step to estimate the over-representation of each motif on the gene-set is to calculate the Area Under the Curve (AUC) for each pair of motif-geneSet. This is calculated based on the recovery curve of the gene-set on the motif ranking (genes ranked decreasingly by the score of motif in its proximity, as provided in the motifRanking database).
The selection of significant motifs is done based on the Normalized Enrichment Score (NES). The NES is calculated—for each motif—based on the AUC distribution of all the motifs for the gene-set [(x-mean)/sd]. Those motifs that pass the given threshold (3.0 by default) are considered significant. […] In this way, the third step of the workflow is to identify which genes (of the gene-set) are highly ranked for each of the significant motifs. These genes were identified by a faster implementation based on an approximate distribution using the average at each rank.
The category of genes with a change in expression identified in Example 2 was analyzed with a software (GSEA), which is different from that in Example 2 (GO) (FIG. 3). Analysis with GSEA was performed as follows. GSEA performed categorization by the regulating gene. This is different from GO, which performs categorization by function.
Data was created on the relationship of activattion+unknown and repression+unknown for regulatory genes and transcription factors installed in TRRUST ver2. Gene enrichment analysis was performed using GSEA (https://www.gsea-msigdb.org/gsea/index.jsp) based on respective gene sets. local gsea-3.0 that starts up within java was used for GSEA.

Several values for one entry are separate records, joined by “and”; a condition that tells them apart may be missing. Identical values can stand only once. Entries after “also recorded” stand apart in the source; their conditions may differ.

In the case of `C[C@H]1[C@H]2N(C(=O)CN(C)N2C(=O)NCc2ccccc2)[C@@H](Cc2ccc(O)cc2)C(=O)N1Cc1cccc2cccnc12` [C-82, (6S,9S)—N-benzyl-6-(4-hydroxybenzyl)-2,9-dimethyl-4,7-dioxo-8-(quinolin-8-ylmethyl)hexahydro-2H-pyrazino[2,1-c][1,2,4]triazine-1(6H)-carboxamide], in assay [1] (C-82 administration, mice with/without exercise), the “diseases associated with the top 100 differentially expressed genes” value is “achieves the same result as OK-1”. In addition, in the assay on old mice (C57BL/6J) (74-week old mice, 7 mg/kg and 20 mg/kg intraperitoneal twice a week for 6 weeks, versus no administration), the “muscle strength (endurance) through a treadmill test” value is on record as “significant increase in muscle strength (endurance); also recorded: increased significantly”. In addition, the “change in gene expression in muscles” value in assay [2] (C-82 administration, same method as Example 2) is listed as “achieves the same result as OK-1”.

With `C[C@H]1[C@H]2N(C(=O)CN(C)N2C(=O)NCc2ccccc2)[C@@H](Cc2ccc(OP(=O)(O)O)cc2)C(=O)N1Cc1cccc2cccnc12` [OK-1], in assay [1] (top 100 genes), the “gene group associated with OK-1: genes with change in muscle control with/without exercise, disease-associated” value was “Dsp, Krt17, Comp, Krt86, Krt81, Krt83, Krt14, Abca12, Tchh, Krt5, Dsg4, Lpl, Myh6, Tfap2a, Col1a1, Lepr, Fn1, Col1a2, Col6a1, Col3a1, Mmp2, Acta2, F13a1, Col6a2, and Cx3cr1”. For the same molecule, in the assay on old mice (C57BL/6J) (intraperitoneal, twice a week over three months, 20 mg/kg/day, young (15-week) and old (79-week) mice), the “muscle strength (endurance) through a treadmill test” value is reported as “increase in muscle strength due to OK-1 administration, which is specific to old mice”. For the same molecule, in assay [2], the “gene group associated with OK-1: genes associated with regulation of muscle without exercise” value is “Ppara, Pou2f2, Foxo1, Pparg, Pou2f1, Trp63, Sp1, Tcf3, Zeb1, Srebf1, Sp3, Ebf1, Mycn, and Pbx1”; the “upstream factors from upstream transcription factor analysis” value was “Hnf4a and Gata4, Nrf1, and Hnf1a”. Also, the “gene group associated with OK-1 by GSEA: involved in increase in muscle” value in assay [2] (GSEA, TRRUST ver2) was “IRF1, NFE2L2, PPARG, FOXO1, CEBPB, PPARA, CEBPA, STAT1, STAT5A, MYOD1, REL, NFKB1, SPI1, IRF8, SP1, and FOXM1”. In assay [2] (OK-1 administration, p<0.05), the “genes decreased (downregulated expression) significantly in muscle” value was 445 genes and 595 genes; the “genes increased (upregulated expression) significantly in muscle” value is 206 genes and 181 genes.

(Values after US20230390296A1, “NOVEL TREATMENT AND PREVENTION OF SARCOPENIA-RELATED DISEASES” (KEIO UNIVERSITY, priority 2020, published 2023).)
